One assay relates to RWP1 cells. The experiment in a line: Effect of anti-FZD5 Fabs on proliferation of pancreatic cancer cell lines (percent growth inhibition). It counts as cell-based, human. Particulars: Fab 2 μg/ml.
Assay [1] has as its system CHO cells not expressing Frizzled CRD. The experiment in a line: Flow cytometry of anti-FZD5 Fab binding to CHO cells not expressing Frizzled CRD (background). The text has this: The binding of anti-FZD5 Fabs to cell surface-expressed Frizzled protein was further determined for each member of the Frizzled family via flow cytometry and immunofluorescence analysis of a panel of 10 CHO cell lines, each ectopically over-expressing the extracellular cysteine-rich domain (CRD) of a different Frizzled protein family member.

A further assay has as its system PATU8988S cells. The experiment in a line: Effect of anti-FZD5 Fabs on proliferation of pancreatic cancer cell lines (percent growth inhibition). Type of assay: cell-based, human. As to conditions: Fab 2 μg/ml.

Regarding “Fab-2931: anti-FZD5 Fab with antibody variable region Fv-2931; CDR SEQ ID NOs: 35, 36, 70, 102, 146, 176 (CDR 1 QSVSSA; CDR 2 SAS; CDR 3 QQSSYSLIT; CDR 4 GFNLSYSS; CDR 5 ISPYSGST; CDR 6 ARGSYWYVGGGWWVSGHGGMDY)”, the “percent growth inhibition, RWP1 2 μg/ml” value in the assay on RWP1 cells is 15.35%. In assay [1], the “Median fluorescence, Frizzled CRD overexpressed on CHO cells: None” value is listed as 3.11. Further, in the assay with PATU8988S cells, the “percent growth inhibition, PATU8988s 2 μg/ml” value is −20.00%.

For the origin of these results see patent US20210253718A1, “FRIZZLED5 PROTEIN-BINDING AGENTS” (Modmab Therapeutics Corporation, priority 2016, published 2021).
